Measurements reported in paper doi:10.1101/2024.08.25.609621 (bioRxiv, 2024).
“And” between values parts separate entries of the source, which are not always exact repeats. Identical values can stand only once. Like-named read-outs stand apart in the source and are kept apart here.

Experiments:
[1] = target: SARS-CoV-2 NSP3 macrodomain (Mac1), P43 crystal form (Severe acute respiratory syndrome coronavirus 2, UniProt P0DTD1); assay type: binding
[2] = target: SARS-CoV-2 NSP3 macrodomain (Mac1) (Severe acute respiratory syndrome coronavirus 2, UniProt P0DTD1); experiment: biochemical; assay type: binding
[3] = ligand modeling in Mac1 crystal structure
[4] = stereoisomer(s) modeled in Mac1 crystal structure
[5] = dose-response, read-out: SARS CoV-2 macrodomain HTRF assay: IC50
[6] = dose-response, read-out: SARS CoV-2 macrodomain HTRF assay: Ki
[7] = from SARS CoV-2 macrodomain HTRF assay
[8] = ligand modeling in Mac1 crystal soak
[9] = Single dose, 200 μM, mean of three technical replicates, read-out: Average % competition
[10] = preliminary screen, compound at 200 μM, mean of 3-4 technical replicates, read-out: % competition in HTRF assay
[11] = crystal soak 10 mM, TFA/DMSO background map
[12] = SARS CoV-2 macrodomain HTRF assay
[13] = SARS CoV-2 macrodomain HTRF assay, dose-response, read-out: IC50
[14] = SARS CoV-2 macrodomain HTRF assay, dose-response, read-out: Ki
[15] = Single dose, concentration 200 μM, read-out: SARS CoV-2 macrodomain HTRF assay: Average % competition
[16] = stereoisomer(s) of ligand modeled in Mac1 crystal structure
[17] = SARS CoV-2 macrodomain HTRF assay, read-out: Ki
[18] = Single dose, concentration 200 μM, read-out: Average % competition
[19] = soak concentration 10 mM, TFA/DMSO background map

Row | Structure (SMILES) | Number of isomers bound [1, 3] | IC50 [2, 5] [µM] | Ki [2, 6] [µM] | Ligand efficiency (binding enery per heavy atom) [2, 7] | Number of isomers bound [1, 8] | inhibition at 200 µM [2, 10] [%] | also measured
1 | OC1(CNc2ncnc3[nH]ccc23)CCCCC1 [AVI-6217] | 1 | 42 | 39 | 0.34 | – | – | Isomers modeled [1, 4]: achiral
2 | O=C(O)C1CCCN1S(=O)(=O)c1cccc2nsnc12 (stereo not drawn) [AVI-2] | – | – | – | – | 1 | 23 | inhibition at 200 µM [2, 9]: 23%
3 | O=C(O)C(F)(F)F.OC[C@H](Cc1ccc(O)cc1)Nc1ncnc2[nH]ccc12 [AVI-4066] | 1 | – | – | – | – | – | Hit (PanDDA run, TFA/DMSO background map) [1, 11]: TRUE; 1-BDC (PanDDA run, TFA/DMSO background map) ([1]; crystal soak 10 mM, TFA/DMSO background map, event 1): 0.19 and 0.29 and 0.3; Ligand efficiency (binding enery per heavy atom) [2, 12]: 0.21; IC50 [2, 13]: 720 µM; Ki [2, 14]: 670 µM
4 | CNc1ccc(NS(=O)(=O)c2cc3cccc(C)c3s2)cn1 [AVI-345] | 1 | – | – | – | – | 18 | Isomers modeled [1, 4]: achiral; inhibition at 200 µM [2, 9]: 18%
5 | OC1CCN(c2ncnc3[nH]ccc23)C1 (stereo not drawn) [AVI-3661] | 1 | – | – | – | – | 11 | PanDDA run, TFA/DMSO background map: 1-BDC [1, 11]: 0.12; PanDDA run, TFA/DMSO background map: Hit [1, 11]: TRUE; inhibition at 200 µM [2, 15]: 11%
6 | OC1(CNc2ncnc3[nH]ccc23)CCOCC1 [AVI-4314] | 1 | 230 | 210 | 0.28 | – | – | Isomers modeled [1, 4]: achiral
7 | CC(C)(O)C1N(c2ncnc3[nH]ccc23)CCC1(C)C (stereo not drawn) [AVI-4126] | 2 | 100 | 93 | 0.28 | – | – | Isomers modeled [1, 4]: R,S
8 | CC(CNC(=O)c1ccc2c(c1)CCC(=O)N2)C(=O)O (stereo not drawn) [AVI-328] | – | – | – | – | 2 | – | Isomers modeled [1, 16]: R,S; Ligand efficiency (binding enery per heavy atom) [2, 12]: 0.25; Ki [2, 17]: 210 µM; IC50 ([2]; read-out: HTRF IC50): 220 µM
9 | OCC(Cc1c[nH]c2ccccc12)Nc1ncnc2[nH]ccc12 (stereo not drawn) [AVI-3650] | – | – | – | – | 2 | 71 | PanDDA run, TFA/DMSO background map: 1-BDC [1, 11]: 0.11; PanDDA run, TFA/DMSO background map: Hit [1, 11]: TRUE; Isomers modeled [1, 16]: R,S; inhibition at 200 µM [2, 18]: 71%
10 | OCC(CC1CCCCC1)Nc1ncnc2[nH]ccc12 (stereo not drawn) [AVI-3690] | – | – | – | – | 1 | 68 | inhibition at 200 µM [2, 18]: 66%
11 | OCC(CC1CCCO1)Nc1ncnc2[nH]ccc12 (stereo not drawn) [AVI-3660] | – | – | – | – | 1 | 18 | PanDDA run, TFA/DMSO background map: 1-BDC [1, 11]: 0.17; PanDDA run, TFA/DMSO background map: Hit [1, 11]: TRUE; inhibition at 200 µM [2, 18]: 18%
12 | CCC(C)(CO)Nc1ncnc2[nH]ccc12 (stereo not drawn) [AVI-3697] | – | – | – | – | 1 | – | Ligand efficiency (binding enery per heavy atom) [2, 12]: 0.39; IC50 [2, 13]: 36 µM; Ki [2, 14]: 34 µM
13 | OCC(Nc1ncnc2[nH]ccc12)c1ccco1 (stereo not drawn) [AVI-3659] | – | – | – | – | 1 | 55 | PanDDA run, TFA/DMSO background map: 1-BDC [1, 11]: 0.08; PanDDA run, TFA/DMSO background map: Hit [1, 11]: TRUE; inhibition at 200 µM [2, 18]: 55%
14 | OCC(Nc1ncnc2[nH]ccc12)C1CCC1 (stereo not drawn) [AVI-3638] | – | – | – | – | 1 | 77 | PanDDA run, TFA/DMSO background map: 1-BDC [1, 11]: 0.1; PanDDA run, TFA/DMSO background map: Hit [1, 11]: TRUE; inhibition at 200 µM [2, 18]: 77%
15 | CCC(O)[C@H]1CCCN1c1ncnc2[nH]ccc12 (stereo partly drawn) [AVI-3666] | – | – | – | 0.34 | 1 | – | fold decrease in binding affinity compared to AVI-4062 [2]: ~ 4 fold
16 | C[C@@H]1CCN(c2ncnc3[nH]ccc23)[C@H](CO)C1 (racemic) [AVI-4064] | 2 | 100 | 93 | 0.31 | – | – | Isomers modeled [1, 4]: RS,SR

Row | Structure (SMILES) | Number of isomers bound [1, 3] | IC50 [2, 5] [µM] | Ki [2, 6] [µM] | Ligand efficiency (binding enery per heavy atom) [2, 7] | Number of isomers bound [1, 8] | inhibition at 200 µM [2, 10] [%] | also measured
17 | OC1(CNc2ncnc3[nH]ccc23)COC2CC1C2 (stereo not drawn) [AVI-4313] | 1 | 130 | 120 | 0.29 | – | – | –
18 | OCC(Cc1ccccc1)Nc1ncnc2[nH]ccc12 (stereo not drawn) [AVI-313] | – | – | – | – | 2 | – | Isomers modeled [1, 16]: S,R; Ligand efficiency (binding enery per heavy atom) [2, 12]: 0.27; Ki [2, 17]: 120 µM; IC50 ([2]; read-out: HTRF IC50): 130 µM
19 | O=C(O)C(F)(F)F.OC[C@@H]1CC2(CC2)CN1c1ncnc2[nH]ccc12 [AVI-3710] | – | – | – | – | 1 | 57 | PanDDA run, TFA/DMSO background map: 1-BDC [1, 19]: 0.23; PanDDA run, TFA/DMSO background map: Hit [1, 19]: TRUE; Isomers modeled [1, 16]: S,S; inhibition at 200 µM [2, 15]: 57%
20 | OC1CCC(O)(CNc2ncnc3[nH]ccc23)CC1 (stereo not drawn) [AVI-6220] | 1 | 260 | 240 | 0.26 | – | – | Isomers modeled [1, 4]: rr,rr
21 | Cn1cc(CC(CO)Nc2ncnc3[nH]ccc23)cn1 (stereo not drawn) [AVI-3657] | – | – | – | – | 1 | 24 | PanDDA run, TFA/DMSO background map: 1-BDC [1, 11]: 0.09; PanDDA run, TFA/DMSO background map: Hit [1, 11]: TRUE; inhibition at 200 µM [2, 18]: 24%
22 | CC1(C)C[C@@H](CO)N(c2ncnc3[nH]ccc23)C1.O=C(O)C(F)(F)F [AVI-3704] | – | 29 | 27 | 0.35 | 1 | – | –
23 | OCC(Cc1cncs1)Nc1ncnc2[nH]ccc12 (stereo not drawn) [AVI-3703] | – | – | – | – | 1 | 28 | PanDDA run, TFA/DMSO background map: 1-BDC [1, 19]: 0.1; PanDDA run, TFA/DMSO background map: Hit [1, 19]: TRUE; inhibition at 200 µM [2, 18]: 28%
24 | OCC1CC=CCN1c1ncnc2[nH]ccc12 (stereo not drawn) [AVI-6002] | 1 | 52 | 48 | 0.35 | – | – | –
25 | CC(C)(O)C1C2CCC2CN1c1ncnc2[nH]ccc12 (stereo not drawn) [AVI-4128] | 1 | – | 22 | 0.32 | – | – | Isomers modeled [1, 4]: SRR; IC50 ([2]; read-out: HTRF IC50): 24 µM
26 | OCC(Nc1ncnc2[nH]ccc12)C1CC1 (stereo not drawn) [AVI-3651] | – | – | – | – | 1 | – | PanDDA run, TFA/DMSO background map: 1-BDC [1, 11]: 0.16; PanDDA run, TFA/DMSO background map: Hit [1, 11]: TRUE; Ligand efficiency (binding enery per heavy atom) [2, 12]: 0.38; IC50 [2, 13]: 48 µM; Ki [2, 14]: 45 µM
27 | OC1(CNc2ncnc3[nH]ccc23)CCCC(C(F)(F)F)C1 (stereo not drawn) [AVI-4309] | 1 | 150 | 140 | 0.24 | – | – | –
28 | OCC1COCCN1c1ncnc2[nH]ccc12 (stereo not drawn) [AVI-3717] | – | – | – | – | 2 | 62 | Isomers modeled [1, 16]: R,S; inhibition at 200 µM [2, 15]: 62%
29 | CC(C)(C)[C@@H]1CCN(c2ncnc3[nH]ccc23)[C@H](CO)C1 [AVI-3722] | – | – | – | – | 1 | 22 | inhibition at 200 µM [2, 15]: 22%
30 | OCC1CC2(CCOCC2)CN1c1ncnc2[nH]ccc12 (stereo not drawn) [AVI-3707] | – | – | – | – | 1 | 39 | PanDDA run, TFA/DMSO background map: 1-BDC [1, 19]: 0.15; PanDDA run, TFA/DMSO background map: Hit [1, 19]: TRUE; inhibition at 200 µM [2, 15]: 39%
31 | Cc1c[nH]c2ncnc(NCC3(O)CCSCC3)c12 [AVI-4195, 4-(((5-methyl-7H-pyrrolo[2,3-d]pyrimidin-4-yl)amino)methyl)tetrahydro-2H-thiopyran-4-ol] | 1 | 52 | 48 | 0.31 | – | – | Isomers modeled [1, 4]: achiral
